Experimental data: US20250197409A1, “BIFUNCTIONAL COMPOUND AND PHARMACEUTICAL COMPOSITION COMPRISING THE BIFUNCTIONAL COMPOUND, AND METHOD FOR TREATING ANDROGEN RECEPTOR RELATED DISEASE BY USING THE SAME” (ANHORN MEDICINES CO., LTD., priority 2022, published 2025)
Like-named read-outs stand apart in the source and are kept apart here.

Molecular target: T1, androgen receptor (Homo sapiens, UniProt P10275, T878A)
T1 construct: host or cells: LNCaP.FGC
Assay: Androgen receptor degradation assay using Western blot analysis
Type: cell-based
Protocol: Cells not treated with any of the above-mentioned compounds are used as a negative control.
The internal loading control GAPDH was detected using a mouse monoclonal antibody (1:5000) (GTX627408, GeneTex International Corp., HsinChu City, Taiwan R.O.C.) and a goat anti-mouse HRP-conjugated secondary antibody (1:5000 dilution) (C04001, Croyez Bioscience Co., Ltd., Taipei City, Taiwan R.O.C.).
AR remaining percentage was determined by the intensity difference of AR signals (each was normalized by the corresponding internal loading control GAPDH) between the protein samples from the untreated cells (100%) and those from the treated cells. “Cpd. #” indicates the compound number hereinabove.
In addition, several compounds were selected to prepare a treatment stock solutions at 100 nM in RPMI medium. The treatment stock solutions were separately serially diluted (10×) with RPMI medium for treating LNCaP.FGC cells seeded with 2×10^5 cells per well in 24-well tissue culture plates. A calibration curve was determined by the serial diluted samples for each compound, and the concentration needed for 50% AR degradation (AR DC50) for each compound was calculated.

[1] = 24 h, read-out: Androgen Receptor Remaining (%), LNCaP.FGC cells, 100 nM, 24 hr, normalized to GAPDH, untreated cells = 100%
[2] = read-out: AR DC50 (concentration needed for 50% AR degradation); LNCaP.FGC cells, serial 10x dilutions from 100 nM
[3] = 24 h, LNCaP.FGC cells, 100 nM, 24 hr, normalized to GAPDH, untreated cells = 100%; read-out: Androgen Receptor Remaining (%)
[4] = LNCaP.FGC cells, serial 10x dilutions from 100 nM; read-out: AR DC50 (concentration needed for 50% AR degradation)

T1 sequence (P10275 whole entry T878A): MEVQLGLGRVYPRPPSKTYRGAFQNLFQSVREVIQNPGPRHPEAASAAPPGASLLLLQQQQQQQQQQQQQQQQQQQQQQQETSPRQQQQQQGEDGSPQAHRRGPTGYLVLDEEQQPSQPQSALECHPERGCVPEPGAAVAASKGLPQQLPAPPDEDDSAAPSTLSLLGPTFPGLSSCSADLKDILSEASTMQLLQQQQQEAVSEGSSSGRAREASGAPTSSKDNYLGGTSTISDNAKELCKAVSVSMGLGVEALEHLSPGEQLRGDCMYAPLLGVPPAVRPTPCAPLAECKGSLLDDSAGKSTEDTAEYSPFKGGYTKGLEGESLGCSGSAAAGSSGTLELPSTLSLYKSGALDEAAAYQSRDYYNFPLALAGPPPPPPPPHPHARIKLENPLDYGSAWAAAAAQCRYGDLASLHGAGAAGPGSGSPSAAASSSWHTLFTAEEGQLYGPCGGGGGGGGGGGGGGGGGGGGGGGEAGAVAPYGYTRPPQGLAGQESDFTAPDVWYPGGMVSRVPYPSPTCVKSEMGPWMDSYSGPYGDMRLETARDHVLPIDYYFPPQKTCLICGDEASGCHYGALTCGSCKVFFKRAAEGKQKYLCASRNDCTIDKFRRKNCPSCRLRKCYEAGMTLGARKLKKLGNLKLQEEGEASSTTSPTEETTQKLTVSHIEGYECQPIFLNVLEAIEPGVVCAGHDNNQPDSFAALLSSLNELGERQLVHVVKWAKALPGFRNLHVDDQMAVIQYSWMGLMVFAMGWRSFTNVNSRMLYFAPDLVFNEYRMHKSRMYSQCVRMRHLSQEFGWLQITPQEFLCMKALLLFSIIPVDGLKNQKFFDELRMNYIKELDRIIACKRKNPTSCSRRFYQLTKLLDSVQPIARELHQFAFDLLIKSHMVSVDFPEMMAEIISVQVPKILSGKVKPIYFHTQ
T1 sequence (Q96SW2 whole entry partner): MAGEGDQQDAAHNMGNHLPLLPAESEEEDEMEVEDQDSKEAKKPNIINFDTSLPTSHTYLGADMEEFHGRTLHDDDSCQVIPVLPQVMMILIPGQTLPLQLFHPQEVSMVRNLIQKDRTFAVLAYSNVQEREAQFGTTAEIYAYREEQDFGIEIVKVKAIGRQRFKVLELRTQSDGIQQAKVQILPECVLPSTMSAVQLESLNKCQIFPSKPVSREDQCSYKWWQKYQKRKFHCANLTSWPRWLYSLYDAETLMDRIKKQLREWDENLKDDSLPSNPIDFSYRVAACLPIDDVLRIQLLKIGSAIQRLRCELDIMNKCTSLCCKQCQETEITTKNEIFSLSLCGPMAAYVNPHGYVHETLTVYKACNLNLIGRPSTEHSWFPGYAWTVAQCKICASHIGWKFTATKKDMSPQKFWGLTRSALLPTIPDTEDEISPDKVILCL

Compound | remaining activity at 0.1 µM [1] | DC50 [2] | other results
CCn1c2c(c3ccc(OCCN4CCN(c5ccc(C(=O)N[C@H]6CC[C@H](Oc7ccc(C#N)c(Cl)c7)CC6)nn5)C[C@H]4C)cc31)C(=O)N(C1CCC(=O)NC1=O)C2=O (stereo partly drawn) [Compound 73] | 41% | 25 to 100 nM | 
CCn1c2c(c3ccc(OCCCN4CCN(c5ccc(C(=O)N[C@H]6CC[C@H](Oc7ccc(C#N)c(Cl)c7)CC6)nn5)C[C@H]4C)cc31)C(=O)N(C1CCC(=O)NC1=O)C2=O (stereo partly drawn) [Compound 74] | 40% | 25 to 100 nM | 
Cn1c2c(c3ccc(OCCN4CCCN(c5ccc(C(=O)N[C@H]6CC[C@H](Oc7ccc(C#N)c(Cl)c7)CC6)nn5)CC4)cc31)C(=O)N(C1CCC(=O)NC1=O)C2=O (stereo partly drawn) [Compound 75] |  |  | remaining activity at 0.1 µM [3]: 26%; DC50 [4]: 10 to 25 nM
CCn1c2c(c3ccc(OCCCN4[C@H](C)CN(c5ccc(C(=O)N[C@H]6CC[C@H](Oc7ccc(C#N)c(Cl)c7)CC6)nn5)C[C@@H]4C)cc31)C(=O)N(C1CCC(=O)NC1=O)C2=O (stereo partly drawn) [Compound 76] | 78% |  | 
CCn1c2c(c3ccc(OCCN4[C@H](C)CN(c5ccc(C(=O)N[C@H]6CC[C@H](Oc7ccc(C#N)c(Cl)c7)CC6)nn5)C[C@@H]4C)cc31)C(=O)N(C1CCC(=O)NC1=O)C2=O (stereo partly drawn) [Compound 77] | 92% |  | 
CCn1c2c(c3ccc(OCCCN4CCN(c5ccc(C(=O)N[C@H]6CC[C@H](N(C)c7ccc(C#N)c(Cl)c7)CC6)nn5)CC4)cc31)C(=O)N(C1CCC(=O)NC1=O)C2=O (stereo partly drawn) [Compound 78] | 57% | 10 to 25 nM | 
CCn1c2c(c3ccc(OCCN4CCN(c5ccc(C(=O)N[C@H]6CC[C@H](N(C)c7ccc(C#N)c(Cl)c7)CC6)nn5)CC4)cc31)C(=O)N(C1CCC(=O)NC1=O)C2=O (stereo partly drawn) [Compound 79] | 60% |  | 
CCn1c2c(c3ccc(OCCN4CC5(CCN(c6ccc(C(=O)N[C@H]7CC[C@H](Oc8ccc(C#N)c(Cl)c8)CC7)nn6)CC5)C4)cc31)C(=O)N(C1CCC(=O)NC1=O)C2=O (stereo partly drawn) [Compound 80] | 22% | 10 to 25 nM | 
CCn1c2c(c3ccc(OCCN4CCC5(CC4)CN(c4ccc(C(=O)N[C@H]6CC[C@H](Oc7ccc(C#N)c(Cl)c7)CC6)nn4)C5)cc31)C(=O)N(C1CCC(=O)NC1=O)C2=O (stereo partly drawn) [Compound 81] | 9% | < 10 nM | 
N#Cc1ccc(O[C@H]2CC[C@H](NC(=O)c3ccc(N4CCN(CCCOc5ccc6c7c(n(CC(F)F)c6c5)C(=O)N(C5CCC(=O)NC5=O)C7=O)CC4)nn3)CC2)cc1Cl (stereo partly drawn) [Compound 82] | 35% | 25 to 100 nM | 
CN(c1ccc(C#N)c(Cl)c1)[C@H]1CC[C@H](NC(=O)c2ccc(N3CCN(CCCOc4ccc5c6c(n(CC(F)F)c5c4)C(=O)N(C4CCC(=O)NC4=O)C6=O)CC3)nn2)CC1 (stereo partly drawn) [Compound 83] | 41% | 10 to 25 nM | 
C[Si](C)(C)CCOCn1c2c(c3ccc(OCCCN4CCN(c5ccc(C(=O)N[C@H]6CC[C@H](Oc7ccc(C#N)c(Cl)c7)CC6)nn5)CC4)cc31)C(=O)N(C1CCC(=O)NC1=O)C2=O (stereo partly drawn) [Compound 84] | 62% |  | 
N#Cc1ccc(O[C@H]2CC[C@H](NC(=O)c3ccc(N4CCN(CCCOc5ccc6c7c(n(CO)c6c5)C(=O)N(C5CCC(=O)NC5=O)C7=O)CC4)nn3)CC2)cc1Cl (stereo partly drawn) [Compound 85] | 20% | 25 to 100 nM | 
N#Cc1ccc(O[C@H]2CC[C@H](NC(=O)c3ccc(N4CCN(CCCOc5ccc6c7c([nH]c6c5)C(=O)N(C5CCC(=O)NC5=O)C7=O)CC4)nn3)CC2)cc1Cl (stereo partly drawn) [Compound 86] |  |  | remaining activity at 0.1 µM [3]: 20%; DC50 [4]: 25 to 100 nM
Cn1c2c(c3ccc(OCCCN4CCCN(c5ccc(C(=O)N[C@H]6CC[C@H](Oc7ccc(C#N)c(Cl)c7)CC6)nn5)CC4)cc31)C(=O)N(C1CCC(=O)NC1=O)C2=O (stereo partly drawn) [Compound 87] |  |  | remaining activity at 0.1 µM [3]: 21%; DC50 [4]: 25 to 100 nM
Cn1c2c(c3ccc(OCCN4CCC5(CC4)CN(c4ccc(C(=O)N[C@H]6CC[C@H](Oc7ccc(C#N)c(Cl)c7)CC6)nn4)C5)cc31)C(=O)N(C1CCC(=O)NC1=O)C2=O (stereo partly drawn) [Compound 88] |  |  | remaining activity at 0.1 µM [3]: 10%; DC50 [4]: 10 to 25 nM
CCn1c2c(c3ccc(OCCCCN4CCN(c5ccc(C(=O)N[C@H]6CC[C@H](Oc7ccc(C#N)c(Cl)c7)CC6)nn5)CC4)cc31)C(=O)N(C1CCC(=O)NC1=O)C2=O (stereo partly drawn) [Compound 89] | 7% | < 10 nM | 

Compound | remaining activity at 0.1 µM [1] | DC50 [2] | other results
CCn1c2c(c3ccc(OCCCCN4CCCN(c5ccc(C(=O)N[C@H]6CC[C@H](Oc7ccc(C#N)c(Cl)c7)CC6)nn5)CC4)cc31)C(=O)N(C1CCC(=O)NC1=O)C2=O (stereo partly drawn) [Compound 90] | 28% | 25 to 100 nM | 
CCn1c2c(c3ccc(OCCCCN4CCN(c5ccc(C(=O)N[C@H]6CC[C@H](N(C)c7ccc(C#N)c(Cl)c7)CC6)nn5)CC4)cc31)C(=O)N(C1CCC(=O)NC1=O)C2=O (stereo partly drawn) [Compound 91] | 0% | 10 to 25 nM | 
Cn1c2c(c3ccc(OCCCN4CCC5(CC4)CN(c4ccc(C(=O)N[C@H]6CC[C@H](Oc7ccc(C#N)c(Cl)c7)CC6)nn4)C5)cc31)C(=O)N(C1CCC(=O)NC1=O)C2=O (stereo partly drawn) [Compound 92] |  |  | remaining activity at 0.1 µM [3]: 6%; DC50 [4]: 25 to 100 nM
C=Nc1ccc(O[C@H]2CC[C@H](NC(=O)c3ccc(N4CC5(CCN(CCCOc6ccc7c8c(n(CC(F)F)c7c6)C(=O)N(C6CCC(=O)NC6=O)C8=O)CC5)C4)nn3)CC2)cc1Cl (stereo partly drawn) [Compound 93] | 11% | 25 to 100 nM | 
CCn1c2c(c3ccc(OCCCN4CC5(CCN(c6ccc(C(=O)N[C@H]7CC[C@H](Oc8ccc(C#N)c(Cl)c8)CC7)nn6)CC5)C4)cc31)C(=O)N(C1CCC(=O)N(COCC[Si](C)(C)C)C1=O)C2=O (stereo partly drawn) [Compound 94] | 89% |  | 
CCn1c2c(c3ccc(OCCCN4CC5(CCN(c6ccc(C(=O)N[C@H]7CC[C@H](Oc8ccc(C#N)c(Cl)c8)CC7)nn6)CC5)C4)cc31)C(=O)N(C1CCC(=O)N(CO)C1=O)C2=O (stereo partly drawn) [Compound 95] | 1% | 10 to 25 nM | 
CCn1c2c(c3ccc(OCCCN4CC5(CCN(c6ccc(C(=O)N[C@H]7CC[C@H](Oc8ccc(C#N)c(Cl)c8)CC7)nn6)CC5)C4)cc31)C(=O)N(C1CCC(=O)NC1=O)C2=O (stereo partly drawn) [Compound 96] |  | 10 to 25 nM | Androgen Receptor Remaining (%) (LNCaP.FGC cells, 100 nM, 24 hr, normalized to GAPDH, untreated cells = 100%): 1%
CCn1c2c(c3ccc(OCCCN4CCN(c5ccc(C(=O)N[C@H]6CC[C@H](Oc7ccc(C#N)c(Cl)c7)CC6)nn5)[C@H](C)C4)cc31)C(=O)N(C1CCC(=O)NC1=O)C2=O (stereo partly drawn) [Compound 98] | 26% | 25 to 100 nM | 
CCn1c2c(c3ccc(OCCN4CCN(c5ccc(C(=O)N[C@H]6CC[C@H](Oc7ccc(C#N)c(Cl)c7)CC6)nn5)[C@H](C)C4)cc31)C(=O)N(C1CCC(=O)NC1=O)C2=O (stereo partly drawn) [Compound 99] | 39% | 25 to 100 nM | 
CCn1c2c(c3ccc(OCCCCN4C5CCC4CN(c4ccc(C(=O)N[C@H]6CC[C@H](Oc7ccc(C#N)c(Cl)c7)CC6)nn4)C5)cc31)C(=O)N(C1CCC(=O)NC1=O)C2=O (stereo partly drawn) [Compound 100] | 44% | 25 to 100 nM | 
N#Cc1ccc(O[C@H]2CC[C@H](NC(=O)c3ccc(N4CC5(CCN(CCOc6ccc7c8c(n(CC(F)F)c7c6)C(=O)N(C6CCC(=O)NC6=O)C8=O)CC5)C4)nn3)CC2)cc1Cl (stereo partly drawn) [Compound 103] | 52% |  | 
CN(c1ccc(C#N)c(Cl)c1)[C@H]1CC[C@H](NC(=O)c2ccc(N3CCN(CCOc4ccc5c6c(n(CC(F)F)c5c4)C(=O)N(C4CCC(=O)NC4=O)C6=O)CC3)nn2)CC1 (stereo partly drawn) [Compound 104] | 42% | 25 to 100 nM | 
N#Cc1ccc(O[C@H]2CC[C@H](NC(=O)c3ccc(N4CCN(CCOc5ccc6c7c(n(CC(F)F)c6c5)C(=O)N(C5CCC(=O)NC5=O)C7=O)CC4)nn3)CC2)cc1Cl (stereo partly drawn) [Compound 105] | 42% | 25 to 100 nM | 
CCn1c2c(c3ccc(OCCN4CCC5(CC4)CN(c4ccc(C(=O)N[C@H]6CC[C@H](N(C)c7ccc(C#N)c(Cl)c7)CC6)nn4)C5)cc31)C(=O)N(C1CCC(=O)NC1=O)C2=O (stereo partly drawn) [Compound 106] | 119% |  | 
CCn1c2c(c3ccc(OCCCN4CCC5(CC4)CN(c4ccc(C(=O)N[C@H]6CC[C@H](N(C)c7ccc(C#N)c(Cl)c7)CC6)nn4)C5)cc31)C(=O)N(C1CCC(=O)NC1=O)C2=O (stereo partly drawn) [Compound 107] | 15% |  | 
CN(c1ccc(C#N)c(Cl)c1)[C@H]1CC[C@H](NC(=O)c2ccc(N3CC4(CCN(CCOc5ccc6c7c(n(CC(F)F)c6c5)C(=O)N(C5CCC(=O)NC5=O)C7=O)CC4)C3)nn2)CC1 (stereo partly drawn) [Compound 108] | 19% |  | 
